Results on 4 compounds are retold here after ChEMBL document CHEMBL5032523, “Discovery of thiazolidin-4-one analogue as selective GSK-3β inhibitor through structure based virtual screening” (Bioorg Med Chem Lett, 2021).

In assay [1] the target is T1, Cyclin-dependent kinase 9 (Homo sapiens, UniProt P50750). As to the kind of experiment: Inhibition of CDK9 (unknown origin) at 10 uM relative to control.
In assay [2] the target is T2, Dual specificity tyrosine-phosphorylation-regulated kinase 1A (Homo sapiens, UniProt Q13627). The assay is described as follows: Inhibition of DYRK1A (unknown origin) at 10 uM relative to control.
In assay [3] the target is T3, Dual specificity protein kinase CLK1 (Homo sapiens, UniProt P49759). The assay is described as follows: Inhibition of CLK1 (unknown origin) at 10 uM relative to control.
Target sequence in this assay (P49759 whole entry, looked up): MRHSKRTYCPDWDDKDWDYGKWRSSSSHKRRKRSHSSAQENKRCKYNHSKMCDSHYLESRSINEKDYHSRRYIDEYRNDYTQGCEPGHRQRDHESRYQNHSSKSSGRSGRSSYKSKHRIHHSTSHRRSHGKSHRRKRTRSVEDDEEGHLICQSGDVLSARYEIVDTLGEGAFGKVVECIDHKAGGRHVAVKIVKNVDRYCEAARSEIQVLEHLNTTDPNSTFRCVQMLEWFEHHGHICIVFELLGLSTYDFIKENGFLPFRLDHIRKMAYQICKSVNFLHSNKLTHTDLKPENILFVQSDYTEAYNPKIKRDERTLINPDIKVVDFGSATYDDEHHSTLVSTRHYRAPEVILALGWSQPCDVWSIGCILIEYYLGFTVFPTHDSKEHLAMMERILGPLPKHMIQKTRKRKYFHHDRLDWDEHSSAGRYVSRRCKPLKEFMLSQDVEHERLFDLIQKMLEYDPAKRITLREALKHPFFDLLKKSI
The target in assay [4] is T4, Serine/threonine-protein kinase pim-1 (Homo sapiens, UniProt P11309). The assay is described as follows: Inhibition of PIM1 (unknown origin) at 10 uM relative to control.
Target sequence in this assay (P11309 whole entry, looked up): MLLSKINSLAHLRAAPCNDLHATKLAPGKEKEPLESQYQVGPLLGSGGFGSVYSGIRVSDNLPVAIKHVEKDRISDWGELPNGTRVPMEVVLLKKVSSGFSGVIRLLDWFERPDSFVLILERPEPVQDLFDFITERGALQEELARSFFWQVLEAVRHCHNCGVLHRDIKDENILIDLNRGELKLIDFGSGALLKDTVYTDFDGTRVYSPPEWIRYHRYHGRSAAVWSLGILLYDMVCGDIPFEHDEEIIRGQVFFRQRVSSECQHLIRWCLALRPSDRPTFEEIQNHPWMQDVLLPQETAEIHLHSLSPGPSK
For assay [5], the target named is T5, Serine/threonine-protein kinase haspin (Homo sapiens) (UniProt Q8TF76).
T5 sequence (whole entry): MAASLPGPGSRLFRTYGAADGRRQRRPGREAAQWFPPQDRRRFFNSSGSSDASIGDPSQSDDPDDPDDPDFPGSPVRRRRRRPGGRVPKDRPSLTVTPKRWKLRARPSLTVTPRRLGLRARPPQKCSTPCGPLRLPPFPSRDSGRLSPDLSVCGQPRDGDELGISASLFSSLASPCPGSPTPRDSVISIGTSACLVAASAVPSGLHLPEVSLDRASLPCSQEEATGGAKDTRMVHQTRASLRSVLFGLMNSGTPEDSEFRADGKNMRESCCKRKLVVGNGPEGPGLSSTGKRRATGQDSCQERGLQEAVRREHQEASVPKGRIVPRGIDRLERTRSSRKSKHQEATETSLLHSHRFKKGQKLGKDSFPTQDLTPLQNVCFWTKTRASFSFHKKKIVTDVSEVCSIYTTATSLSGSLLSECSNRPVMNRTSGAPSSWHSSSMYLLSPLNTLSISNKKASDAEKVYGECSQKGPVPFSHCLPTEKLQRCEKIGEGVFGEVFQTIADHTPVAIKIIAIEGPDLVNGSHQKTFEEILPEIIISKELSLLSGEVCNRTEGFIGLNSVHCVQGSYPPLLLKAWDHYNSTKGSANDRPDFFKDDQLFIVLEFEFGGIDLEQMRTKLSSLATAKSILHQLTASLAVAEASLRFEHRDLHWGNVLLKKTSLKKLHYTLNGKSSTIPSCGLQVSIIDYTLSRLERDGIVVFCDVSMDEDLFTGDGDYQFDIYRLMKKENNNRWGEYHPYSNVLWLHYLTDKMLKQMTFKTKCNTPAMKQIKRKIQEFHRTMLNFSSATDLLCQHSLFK
The assay is described as follows: Inhibition of HASPIN (unknown origin) at 10 uM relative to control.

Assay [6] has as its target T6, Cyclin-dependent kinase 5 (Homo sapiens, UniProt Q00535). As to the kind of experiment: Inhibition of CDK5 (unknown origin) at 10 uM relative to control.
Target sequence in this assay (Q00535 whole entry, looked up): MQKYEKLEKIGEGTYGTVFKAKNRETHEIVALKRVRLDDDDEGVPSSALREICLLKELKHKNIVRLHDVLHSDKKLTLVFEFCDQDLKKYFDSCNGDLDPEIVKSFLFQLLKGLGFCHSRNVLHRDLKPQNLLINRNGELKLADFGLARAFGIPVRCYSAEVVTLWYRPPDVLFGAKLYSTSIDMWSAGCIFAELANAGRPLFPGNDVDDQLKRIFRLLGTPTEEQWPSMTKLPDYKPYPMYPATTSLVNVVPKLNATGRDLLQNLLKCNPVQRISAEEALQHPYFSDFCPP
Assay [7] addresses T7, Casein kinase I delta/epsilon (Homo sapiens, UniProt P48730+P49674). As to the kind of experiment: Inhibition of CK-1 delta/epsilon (unknown origin) at 10 uM relative to control. The class given is protein-complex assay.
Target sequence in this assay (P48730 whole entry, looked up): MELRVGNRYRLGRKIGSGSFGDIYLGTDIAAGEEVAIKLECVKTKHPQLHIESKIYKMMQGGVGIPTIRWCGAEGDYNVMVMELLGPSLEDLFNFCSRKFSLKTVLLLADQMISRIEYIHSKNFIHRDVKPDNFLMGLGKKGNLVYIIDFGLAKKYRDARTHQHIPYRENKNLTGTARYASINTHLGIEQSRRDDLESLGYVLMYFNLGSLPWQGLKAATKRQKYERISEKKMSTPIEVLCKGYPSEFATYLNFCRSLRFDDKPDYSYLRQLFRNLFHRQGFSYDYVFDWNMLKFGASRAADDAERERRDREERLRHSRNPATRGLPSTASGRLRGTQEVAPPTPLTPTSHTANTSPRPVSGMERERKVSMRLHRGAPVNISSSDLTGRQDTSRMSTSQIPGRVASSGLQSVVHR
Target sequence in this assay (P49674 whole entry, looked up): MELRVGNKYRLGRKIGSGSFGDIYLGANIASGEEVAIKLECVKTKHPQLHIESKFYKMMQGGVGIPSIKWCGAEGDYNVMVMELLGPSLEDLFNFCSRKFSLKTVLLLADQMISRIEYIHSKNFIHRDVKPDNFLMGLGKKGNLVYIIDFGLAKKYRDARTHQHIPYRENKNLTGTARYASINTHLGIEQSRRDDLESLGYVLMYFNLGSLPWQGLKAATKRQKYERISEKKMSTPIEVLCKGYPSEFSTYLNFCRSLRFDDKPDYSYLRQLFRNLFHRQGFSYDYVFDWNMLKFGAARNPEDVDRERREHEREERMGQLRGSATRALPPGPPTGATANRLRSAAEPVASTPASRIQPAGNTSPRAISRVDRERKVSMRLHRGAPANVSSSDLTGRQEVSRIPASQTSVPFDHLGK
In assay [8] the target is T8, Glycogen synthase kinase-3 beta (Homo sapiens, UniProt P49841). As to the kind of experiment: Inhibition of GSK3beta (unknown origin) at 10 uM relative to control.
Target sequence in this assay (P49841 whole entry, looked up): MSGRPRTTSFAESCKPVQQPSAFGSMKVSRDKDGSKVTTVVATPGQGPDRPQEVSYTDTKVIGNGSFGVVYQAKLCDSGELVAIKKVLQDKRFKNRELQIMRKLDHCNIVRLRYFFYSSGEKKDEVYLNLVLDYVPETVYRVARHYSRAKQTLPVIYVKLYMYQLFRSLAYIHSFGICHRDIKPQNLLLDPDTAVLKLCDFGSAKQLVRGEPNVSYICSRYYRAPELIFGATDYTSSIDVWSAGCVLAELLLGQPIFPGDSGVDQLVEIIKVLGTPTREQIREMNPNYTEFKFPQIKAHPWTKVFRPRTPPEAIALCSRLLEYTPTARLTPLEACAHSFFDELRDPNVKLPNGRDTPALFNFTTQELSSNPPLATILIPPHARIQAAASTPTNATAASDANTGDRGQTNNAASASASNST
The target of assay [9] is T3, Dual specificity protein kinase CLK1. As to the kind of experiment: Inhibition of CLK1 (unknown origin).
Target sequence in this assay (P49759 whole entry): as the sequence (P49759 whole entry, looked up) above
Assay [10] has as its target T1, Cyclin-dependent kinase 9. The assay is described as follows: Inhibition of CDK9 (unknown origin).
Assay [11] addresses T8, Glycogen synthase kinase-3 beta. As to the kind of experiment: Inhibition of GSK3beta (unknown origin).
Target sequence in this assay (P49841 whole entry): as the sequence (P49841 whole entry, looked up) above
Assay [12] addresses T2, Dual specificity tyrosine-phosphorylation-regulated kinase 1A. The assay is described as follows: Inhibition of DYRK1A (unknown origin).
Assay [13] has as its target T8, Glycogen synthase kinase-3 beta. As to the kind of experiment: Non-competitive inhibition of GSK3beta (unknown origin) at 50 uM by ATP competitive assay.
Target sequence in this assay (P49841 whole entry, looked up): as above
For assay [14], the target named is T4, Serine/threonine-protein kinase pim-1. As to the kind of experiment: Inhibition of PIM1 (unknown origin).
Target sequence in this assay (P11309 whole entry): as the sequence (P11309 whole entry, looked up) above
In assay [15] the target is T7, Casein kinase I delta/epsilon. As to the kind of experiment: Inhibition of CK-1 delta/epsilon (unknown origin). The class given is protein-complex assay.
Target sequence in this assay (P48730 whole entry): as the sequence (P48730 whole entry, looked up) above
Target sequence in this assay (P49674 whole entry): as the sequence (P49674 whole entry, looked up) above
In assay [16] the target is T6, Cyclin-dependent kinase 5. The assay is described as follows: Inhibition of CDK5 (unknown origin).
Target sequence in this assay (Q00535 whole entry): as the sequence (Q00535 whole entry, looked up) above
Assay [17] addresses T9, Serine/threonine-protein kinase haspin (Homo sapiens, UniProt Q8TF76).
T9 sequence (Q8TF76 whole entry): T5 sequence (whole entry)
The assay is described as follows: Inhibition of HASPIN (unknown origin).

The inhibition is the change of the read-out against control, counted positive when it falls. A word on the IC50: it is the point on the concentration scale where inhibition reaches its midpoint. Read a high IC50 as weaker potency in that assay.

Each structure is given as a SMILES string. Calls of active or inactive are those of the source. The calls are words filed in the database; no cut-off is given here. Where only a bound is given, the exact number is not on record here.

T1 sequence (P50750 whole entry): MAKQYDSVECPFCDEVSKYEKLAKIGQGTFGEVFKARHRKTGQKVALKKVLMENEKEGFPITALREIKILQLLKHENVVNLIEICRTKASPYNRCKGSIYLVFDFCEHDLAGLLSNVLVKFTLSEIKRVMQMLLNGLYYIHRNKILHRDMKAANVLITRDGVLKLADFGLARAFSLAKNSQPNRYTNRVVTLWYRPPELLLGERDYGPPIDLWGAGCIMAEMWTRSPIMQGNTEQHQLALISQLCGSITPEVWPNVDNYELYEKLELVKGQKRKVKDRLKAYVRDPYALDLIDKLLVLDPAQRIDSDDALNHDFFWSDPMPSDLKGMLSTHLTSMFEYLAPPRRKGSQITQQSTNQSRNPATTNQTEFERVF

With `Clc1ccccc1OCCc1cc([C@@H]2CCN(Cc3cccc4ncccc34)C2)n[nH]1`, the inhibition in [1] is 18%; in assay [3], 11%; in [4], 19%; in [7], 28%; in assay [8], 5%. Moreover, the inhibition entry in [2], in assay [5] and in assay [6] was “inactive” throughout.

On to `Clc1cccc(OCCc2cc([C@@H]3CCN(Cc4cccc5ncccc45)C3)n[nH]2)c1`, for which the inhibition was 29% in assay [1]; 9% in assay [3]; 22% in assay [4]; 33% in assay [5]; 37% in [7]; 10% in [8]. The inhibition result in assay [2] and in [6] was “inactive” in each case.

Consider `Cc1cc(C)c2cc(CN(CCc3ccccc3)Cc3nnnn3Cc3ccco3)c(=O)[nH]c2c1`, for which the inhibition in [1] was 23%; in [2], 6%; in assay [4] it was 16%; in assay [5], 29%; in assay [6], 7%; in assay [7], 12%. Besides, the inhibition in assay [8] stood at 25%. Also, in assay [3], the inhibition result was “inactive”.

With `COc1cc(/C=C2\S/C(=N/c3ccc(C)c(C)c3)NC2=O)ccc1OCc1ccc2ccccc2c1`, the inhibition in [1] came to 29%; in [2], 16%; in assay [3], 22%; in [4], 29%; in assay [5], 22%; in [6], 11%. Further, the inhibition in assay [7] was determined as 14%; in assay [8], 80%. Besides, the half-maximal inhibitory concentration (IC50) in assay [9] was > 10 µM; in assay [10], > 10 µM; in assay [11], 1.08 µM; in assay [12], > 10 µM; in assay [14] it was > 10 µM; in assay [15] it was > 10 µM. Moreover, the IC50 in assay [16] and in assay [17] was > 10 µM in each case. The inhibition entry in [13] was “Active”.
